Reference: the NIST ThermoML archive (doi:10.1016/j.fluid.2016.02.030)

Test: osmotic coefficient (dimensionless); mn = molality of the nth substance listed, in mol/kg
Settings: 308.15 K, Liquid, omometer

O=C(CO)[C@@H](O)[C@H](O)[C@H](O)CO [D-fructose] + O
Settings	osmotic coefficient
m1 = 0.0559	0.9986
m1 = 0.1125	0.9958
m1 = 0.1714	0.9944
m1 = 0.2296	0.9949
m1 = 0.2923	0.9947
m1 = 0.3466	0.9945
m1 = 0.4185	0.9946
m1 = 0.4792	0.9949
m1 = 0.5468	0.9947
m1 = 0.614	0.9951
m1 = 0.6925	0.9951
m1 = 0.7872	0.9955
m1 = 0.9018	0.995
m1 = 1.022	0.9947
m1 = 1.139	0.9949
m1 = 1.266	0.9949
m1 = 1.741	0.9972
m1 = 2.401	1.006
m1 = 2.95	1.014
m1 = 3.625	1.027
m1 = 5.424	1.069

O=C[C@H](O)[C@@H](O)[C@@H](O)CO [L-arabinose] + O
Settings	osmotic coefficient
m1 = 0.0332	0.9993
m1 = 0.0672	0.9973
m1 = 0.1346	0.9965
m1 = 0.2071	0.995
m1 = 0.2766	0.9956
m1 = 0.3435	0.9951
m1 = 0.4151	0.9944
m1 = 0.4952	0.9947
m1 = 0.5785	0.9949
m1 = 0.6498	0.9944
m1 = 0.8204	0.9948
m1 = 0.9055	0.9945
m1 = 1.041	0.9945
m1 = 1.177	0.9944
m1 = 1.313	0.9942
m1 = 1.659	0.995
m1 = 2.402	1.002
m1 = 3.272	1.016

O=C[C@H](O)[C@@H](O)[C@H](O[C@@H]1O[C@H](CO)[C@H](O)[C@H](O)[C@H]1O)[C@H](O)CO [4-O-β-D-galactopyranosyl-D-glucose] + O
Settings	osmotic coefficient
m1 = 0.014	0.9946
m1 = 0.0578	1.011
m1 = 0.1025	1.022
m1 = 0.1286	1.03
m1 = 0.1795	1.046
m1 = 0.2313	1.058
m1 = 0.2909	1.065
m1 = 0.3217	1.067

O=C[C@H](O)[C@@H](O)[C@H](O)CO [D-xylose] + O
Settings	osmotic coefficient
m1 = 5.333	1.007
m1 = 5.362	1.002
m1 = 5.4	0.9966
m1 = 5.435	0.9919
m1 = 5.468	0.9881
m1 = 5.502	0.987
m1 = 5.516	0.9868
m1 = 5.53	0.9859
m1 = 5.542	0.9858
m1 = 5.551	0.9857
m1 = 5.559	0.9852
m1 = 5.566	0.9853
m1 = 5.574	0.985
m1 = 5.582	0.9853
m1 = 5.59	0.9852
m1 = 5.598	0.9866
m1 = 5.604	0.9869
m1 = 5.611	0.9874
m1 = 5.619	0.9894
m1 = 5.625	0.997

O=C[C@H](O)[C@@H](O)[C@@H](O)[C@H](O)CO [(+)-galactose] + O
Settings	osmotic coefficient
m1 = 0.0558	0.9999
m1 = 0.1149	1.001
m1 = 0.1727	1.004
m1 = 0.2306	1.003
m1 = 0.2878	1.004
m1 = 0.3548	1.006
m1 = 0.4098	1.006
m1 = 0.4829	1.007
m1 = 0.5526	1.008
m1 = 0.6174	1.008
m1 = 0.6818	1.009
m1 = 0.7847	1.01
m1 = 0.8958	1.011
m1 = 1.009	1.012
m1 = 1.138	1.013
m1 = 1.308	1.016
m1 = 1.85	1.025
m1 = 2.61	1.045

O=C[C@H](O)[C@@H](O)[C@H](O)[C@H](O)CO [D-glucose] + O
Settings	osmotic coefficient
m1 = 0.0557	1.002
m1 = 0.1126	1.005
m1 = 0.1685	1.004
m1 = 0.2236	1.004
m1 = 0.2913	1.004
m1 = 0.3539	1.005
m1 = 0.4081	1.006
m1 = 0.4775	1.006
m1 = 0.5382	1.006
m1 = 0.5708	1.008
m1 = 0.6209	1.008
m1 = 0.6815	1.008
m1 = 0.7347	1.009
m1 = 0.7963	1.009
m1 = 0.9085	1.01
m1 = 1.019	1.012
m1 = 1.109	1.014
m1 = 1.215	1.015
m1 = 1.323	1.017
m1 = 1.569	1.022
m1 = 1.841	1.03
m1 = 2.386	1.044
m1 = 2.945	1.061
m1 = 3.626	1.078
m1 = 4.847	1.11

OC[C@@H](O)[C@@H](O[C@H]1O[C@H](CO)[C@@H](O)[C@H](O)[C@H]1O)[C@H](O)[C@@H](O)CO [4-O-α-D-glucopyranosyl-D-glucitol] + O
Settings	osmotic coefficient
m1 = 0.0292	0.9903
m1 = 0.1187	0.9976
m1 = 0.219	1.012
m1 = 0.3226	1.019
m1 = 0.4282	1.028
m1 = 0.5127	1.031
m1 = 0.5925	1.032
m1 = 0.774	1.049
m1 = 0.9158	1.06
m1 = 1.054	1.067
m1 = 1.261	1.081
m1 = 1.918	1.151
m1 = 2.645	1.217
m1 = 3.591	1.272

OC[C@H]1O[C@@](CO)(O[C@H]2O[C@H](CO)[C@@H](O)[C@H](O)[C@H]2O)[C@@H](O)[C@@H]1O [D-sucrose] + O
Settings	osmotic coefficient
m1 = 0.0296	0.9997
m1 = 0.0581	1.001
m1 = 0.0904	1.008
m1 = 0.1209	1.013
m1 = 0.1534	1.017
m1 = 0.1988	1.019
m1 = 0.2535	1.025
m1 = 0.3157	1.028
m1 = 0.3938	1.032
m1 = 0.477	1.035
m1 = 0.5567	1.039
m1 = 0.5822	1.04
m1 = 0.648	1.042
m1 = 0.7265	1.047
m1 = 0.8492	1.053
m1 = 0.971	1.058
m1 = 1.087	1.065
m1 = 1.186	1.067
m1 = 1.275	1.074
m1 = 1.996	1.149
m1 = 2.679	1.202
m1 = 3.412	1.248
m1 = 3.927	1.276

O=C[C@H](O)[C@H](O)[C@H](O)CO [D-ribose] + O
Settings	osmotic coefficient
m1 = 0.0338	0.9992
m1 = 0.0672	0.988
m1 = 0.1353	0.9826
m1 = 0.2041	0.9786
m1 = 0.2789	0.9769
m1 = 0.3505	0.9753
m1 = 0.4242	0.9745
m1 = 0.499	0.9743
m1 = 0.5801	0.9736
m1 = 0.6538	0.9734
m1 = 0.7165	0.973
m1 = 0.7426	0.9732
m1 = 0.8289	0.973
m1 = 0.9054	0.9732
m1 = 1.038	0.9735
m1 = 1.183	0.9735
m1 = 1.453	0.9745
m1 = 1.988	0.9774
m1 = 2.594	0.9857
m1 = 3.266	0.9944

OC[C@@H](O)[C@H](O)[C@@H](O)CO [xylitol] + O
Settings	osmotic coefficient
m1 = 0.0663	1.002
m1 = 0.1332	1.002
m1 = 0.2029	1.002
m1 = 0.2718	1.002
m1 = 0.3466	1.003
m1 = 0.4199	1.004
m1 = 0.495	1.005
m1 = 0.5643	1.005
m1 = 0.6343	1.005
m1 = 0.7296	1.006
m1 = 0.792	1.007
m1 = 0.8908	1.008
m1 = 0.9999	1.011
m1 = 1.143	1.012
m1 = 1.297	1.015
m1 = 1.474	1.017
m1 = 2.027	1.026
m1 = 2.646	1.036
m1 = 3.289	1.042
m1 = 4.413	1.048

O=C[C@@H](O)[C@@H](O)[C@H](O)[C@H](O)CO [D-mannose] + O
Settings	osmotic coefficient
m1 = 0.1128	0.9933
m1 = 0.2298	0.989
m1 = 0.3533	0.984
m1 = 0.4798	0.9828
m1 = 0.6097	0.9824
m1 = 0.7659	0.9832
m1 = 0.9375	0.9836
m1 = 1.117	0.9842
m1 = 1.304	0.9852
m1 = 1.829	0.9903
m1 = 2.544	0.9978
m1 = 3.659	1.017

OC[C@H]1O[C@H](OC[C@H]2O[C@H](O[C@]3(CO)O[C@H](CO)[C@@H](O)[C@@H]3O)[C@H](O)[C@@H](O)[C@@H]2O)[C@H](O)[C@@H](O)[C@H]1O [D-raffinose] + O
Settings	osmotic coefficient
m1 = 0.0343	1.002
m1 = 0.1059	1.025
m1 = 0.1837	1.04
m1 = 0.2667	1.062
m1 = 0.3581	1.083
m1 = 0.4515	1.117
m1 = 0.4902	1.134
m1 = 0.6205	1.168

OC[C@@H](O)[C@@H](O)[C@H](O)[C@@H](O)CO [D-sorbitol] + O
Settings	osmotic coefficient
m1 = 0.0278	0.9979
m1 = 0.0558	1.001
m1 = 0.111	0.9992
m1 = 0.1676	1.003
m1 = 0.2296	1.002
m1 = 0.2892	1.004
m1 = 0.3523	1.003
m1 = 0.4124	1.004
m1 = 0.4781	1.003
m1 = 0.5436	1.003
m1 = 0.6109	1.003
m1 = 0.6764	1.003
m1 = 0.7778	1.003
m1 = 0.8812	1.004
m1 = 0.9996	1.004
m1 = 1.112	1.006
m1 = 1.284	1.008
m1 = 1.723	1.013
m1 = 2.342	1.027
m1 = 2.956	1.041
m1 = 3.645	1.057
